The text below walks through data of US20240294595A1, “GLYCOPEPTIDES AND USES THEREOF” (Arizona Board of Regents on Behalf of the University of …, priority 2013, published 2024).

Entries after “also recorded” stand apart in the source; their conditions may differ.

For one data set, the target named is T1, VPAC1 (Homo sapiens, UniProt P32241).
T1 sequence (P32241 31-457): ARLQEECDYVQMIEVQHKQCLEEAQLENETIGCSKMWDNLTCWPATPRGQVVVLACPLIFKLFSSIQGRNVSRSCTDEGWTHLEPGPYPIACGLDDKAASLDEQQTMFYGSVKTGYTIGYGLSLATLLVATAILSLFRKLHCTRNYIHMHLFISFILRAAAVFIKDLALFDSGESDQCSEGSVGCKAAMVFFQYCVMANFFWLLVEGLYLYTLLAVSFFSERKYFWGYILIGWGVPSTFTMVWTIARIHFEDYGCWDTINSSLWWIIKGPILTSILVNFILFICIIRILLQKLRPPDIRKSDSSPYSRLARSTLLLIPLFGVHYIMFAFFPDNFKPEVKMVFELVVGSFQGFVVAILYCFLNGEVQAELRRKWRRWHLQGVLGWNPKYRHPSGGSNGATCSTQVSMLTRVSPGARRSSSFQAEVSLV
The experiment in a line: VPAC1 agonist data (Table 2). Type of data set: cell-based.

For data set [1], the system named is traumatic brain injury (TBI). Description: mouse model of diffuse TBI (midline fluid percussion injury). It is filed as in vivo. The protocol:
Lead compound 2LS80Mel was evaluated for its neuroprotective potential in vivo utilizing a mouse model of traumatic brain injury (TBI). Mice were pretreated with either a single dose of 2LS80Mel (10 mg/kg i.p.) or sterile saline 30 min prior to being subjected to a midline fluid percussion injury. The mice were then evaluated for sleep-wake behavior (FIGS. 8A-C), motor skills and cognition, (FIGS. 8D-F), the presence of inflammatory markers, (FIGS. 8G-L), and microglial morphology (FIGS. 8M-O).

Another data set addresses T2, VPAC2 (Homo sapiens, UniProt P41587).
T2 sequence (P41587 24-438): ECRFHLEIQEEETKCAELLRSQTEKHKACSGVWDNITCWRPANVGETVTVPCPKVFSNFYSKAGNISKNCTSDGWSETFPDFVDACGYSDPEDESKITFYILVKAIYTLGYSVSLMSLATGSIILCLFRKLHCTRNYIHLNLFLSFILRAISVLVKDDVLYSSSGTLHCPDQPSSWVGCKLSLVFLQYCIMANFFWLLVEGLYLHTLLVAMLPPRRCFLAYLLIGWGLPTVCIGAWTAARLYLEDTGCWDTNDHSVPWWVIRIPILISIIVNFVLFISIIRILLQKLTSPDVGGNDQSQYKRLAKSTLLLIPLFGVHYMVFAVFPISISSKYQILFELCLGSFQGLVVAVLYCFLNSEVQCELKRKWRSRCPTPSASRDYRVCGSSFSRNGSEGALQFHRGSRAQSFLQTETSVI
The experiment in a line: VPAC2 agonist data (Table 2). It is filed as cell-based.

The target in another data set is T3, PAC1 (Homo sapiens, UniProt P41586).
T3 sequence (P41586 21-468): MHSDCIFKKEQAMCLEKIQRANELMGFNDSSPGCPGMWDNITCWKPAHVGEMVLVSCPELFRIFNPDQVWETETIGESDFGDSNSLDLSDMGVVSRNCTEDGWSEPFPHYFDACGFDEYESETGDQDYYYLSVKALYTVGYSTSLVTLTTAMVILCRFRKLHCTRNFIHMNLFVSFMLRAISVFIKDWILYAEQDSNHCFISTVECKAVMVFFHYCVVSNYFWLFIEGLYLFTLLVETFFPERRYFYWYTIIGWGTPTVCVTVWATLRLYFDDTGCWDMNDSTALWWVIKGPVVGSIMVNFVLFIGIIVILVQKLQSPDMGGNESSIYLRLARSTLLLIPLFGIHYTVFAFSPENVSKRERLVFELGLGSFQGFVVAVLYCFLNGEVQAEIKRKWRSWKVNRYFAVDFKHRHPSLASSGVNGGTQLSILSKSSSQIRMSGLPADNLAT
Description: PAC1 agonist data (Table 2). Set-up: host or cells: CHO (clonal line PAC1-CHO). Type of data set: cell-based. The protocol:
A custom DNA clone of the human PAC1 gene with 3 hemagglutinin (HA) tags inserted 3′ to the signal peptide sequence (to avoid proteolytic loss) was obtained from Genecopoeia (Rockville, MD). The construct was electroporated into Chinese Hamster Ovary (CHO) cells, and selected for with 500 μg/mL of G418. The resulting population was screened for high expressing clones, and one such clone selected for further analysis. […] This cell line was used for all molecular pharmacology experiments. The cells were maintained in DMEM/F12 with 10% heat-inactivated FBS, 1× penicillin/streptomycin, and 500 μg/mL G418, at 37° C. and 5% CO2.
All molecular pharmacology experiments were carried out using a FLIPR Tetra from Molecular Devices (Sunnyvale, CA), set to image calcium flux using the manufacturer's recommended settings and protocols. The day before an experiment, the PAC1-CHO cells were split into 384 well black walled, clear bottom microplates, 10,000 cells per well. The cells were recovered overnight in growth medium (as above). The next day, the growth medium was replaced with Calcium 6 dye (Molecular Devices) using the manufacturer recommended buffer with 2.5 mM probenecid. The cells were incubated for 2 hours in the culture incubator, and removed during the last 15 minutes to allow equilibration to room temperature. Compound as indicated below was added to the cells using a 384 tip block, with real time monitoring before, during, and 15 minutes after compound addition. The resulting calcium flux was recorded, and the maximum-minimum response over the entire observation time calculated and reported as the mean±SEM (4 wells per point).
For agonist mode experiments, compound was added in an 11 point concentration curve, with a vehicle control (buffer). […] The response was analyzed using a 3 variable non-linear curve fit, and the EC50 (nM) and EMax (%) calculated and reported (Prism, GraphPad, La Jolla, CA).

The nature of data set [2]: stability in mouse serum at 37° C. (FI-MSn). It is filed as in vitro ADME. The conditions noted are these: for degradation in mouse serum: mouse serum at 37° C. An excerpt: Chemical stability of the glycopeptides in vivo plays an important role in the deliverability of the drugs to the site(s) of action within the brain. It is also important to know what the chemical or metabolic instabilities are in order to inform the drug design process. […] Data were fitted using a single exponential decay model (R^2>0.71, in all cases).
The overall process was as follows: Flow-injection tandem mass spectrometry (FI-MS^n) was used to observe the degradation of the peptides and glycopeptides with a Thermo LCQ with electrospray ionization (ESI). The technique involved injection of a sample bolus of material in mouse serum via a six port valve with fluid flow delivered via a syringe pump, and subsequent electrospray ionization (ESI) followed by mass spectral analysis. Samples were diluted to a concentration of ˜5 μM of each PACAP analogue, and were incubated at 37° C. for times varying from 1 to 60 minutes. After samples had been incubated for the prescribed amount of time they were prepared for mass spectrometry analysis by withdrawing 10 microliters of solution and spiking with 1 microliter of a 10 μM solution of peptide internal standard (angiotensin II) in 50% acetic acid and subjecting them to a standard C18 zip tip desalting. These solutions, once eluted from the zip tip were diluted to 100 μL in 50:50 acetonitrile/water with 0.1% formic acid. Tandem mass spectrometry analysis (MS^3) was conducted to yield specific, quantitative signals proportional to the amount of PACAP analogue at each time point. This technique was also used with microdiasylate samples from a mouse after i.p. administration of PACAP1-27-S-G.

The mark [3] stands for this setting: 10 mg/kg i.p. 30 min prior to TBI.

With `CC[C@H](C)[C@H](NC(=O)CNC(=O)[C@H](CC(=O)O)NC(=O)[C@H](CO)NC(=O)[C@@H](N)Cc1c[nH]cn1)C(=O)N[C@@H](Cc1ccccc1)C(=O)N[C@H](C(=O)N[C@@H](CC(=O)O)C(=O)N[C@@H](CO)C(=O)N[C@@H](Cc1ccc(O)cc1)C(=O)N[C@@H](CO)C(=O)N[C@@H](CCCNC(=N)N)C(=O)N[C@@H](Cc1ccc(O)cc1)C(=O)N[C@@H](CCCNC(=N)N)C(=O)N[C@@H](CCCCN)C(=O)N[C@@H](CCC(N)=O)C(=O)N[C@@H](CC(C)C)C(=O)N[C@@H](C)C(=O)N[C@H](C(=O)N[C@@H](CCCCN)C(=O)N[C@@H](CCCCN)C(=O)N[C@@H](Cc1ccc(O)cc1)C(=O)N[C@@H](CC(C)C)C(=O)N[C@@H](C)C(=O)N[C@@H](C)C(=O)N[C@H](C(=O)N[C@@H](CC(C)C)C(=O)N[C@@H](CO[C@@H]1O[C@H](CO[C@H]2O[C@H](CO)[C@H](O)[C@H](O)[C@H]2O)[C@@H](O)[C@H](O)[C@H]1O)C(N)=O)C(C)C)C(C)C)[C@@H](C)O` [Compound 2LS80Mel], at VPAC1, a half-maximal response (EC50) required 0.55 nM and the Emax (as a rule, the greatest response seen or fitted, relative to the assay's reference) was determined as 102%. Further, in data set [1] (setting [3]), the “cumulative minutes slept in the first 6 h post-injury” value is recorded as “slept comparable minutes to uninjured sham animals” and the “sleep in the first dark period” value is “prevented this injury-induced increase in sleep”. For the same molecule, in data set [1] (10 mg/kg i.p. prior to TBI), the “CD11b+Ly6Chigh and CD11b+CD115+Ly6Chigh monocyte populations” value is “not seen; also recorded: prevented increases in peripheral monocyte populations”; the “sensorimotor deficits, modified NSS” value is “prevented”. Moreover, the “Rotarod latency to fall” value in data set [1] (10 mg/kg i.p. prior to TBI, 2, 5, 7 DPI) is “comparable to uninjured shams at all time points post-injury”. In addition, the “levels of select inflammatory cytokines” value in data set [1] (2LS80Mel-treated vs saline-treated) is recorded as “no significant differences”. In addition, the microglial morphology result in data set [1] (2LS80Mel-treated vs saline-treated, 15 DPI) is “no significant differences”. For the same molecule, the “behavioral, neurological, and motor skill deficits” value in data set [1] (overall, FIG. 8) is “attenuated behavioral, neurological, and motor skill deficits”. For the same molecule, at VPAC2, the concentration giving a half-maximal response (EC50) (in general, the concentration giving half of the maximal effect) is 9.4 nM and the Emax amounted to 86%. Moreover, at PAC1, the EC50 was determined as 0.57 nM and the Emax was 99%.

Take `CC[C@H](C)[C@H](NC(=O)CNC(=O)[C@H](CC(=O)O)NC(=O)[C@H](CO)NC(=O)[C@@H](N)Cc1cnc[nH]1)C(=O)N[C@@H](Cc1ccccc1)C(=O)N[C@H](C(=O)N[C@@H](CC(=O)O)C(=O)N[C@@H](CO)C(=O)N[C@@H](Cc1ccc(O)cc1)C(=O)N[C@@H](CO)C(=O)N[C@@H](CCCNC(=N)N)C(=O)N[C@@H](Cc1ccc(O)cc1)C(=O)N[C@@H](CCCNC(=N)N)C(=O)N[C@@H](CCCCN)C(=O)N[C@@H](CCC(N)=O)C(=O)N[C@@H](CCSC)C(=O)N[C@@H](C)C(=O)N[C@H](C(=O)N[C@@H](CCCCN)C(=O)N[C@@H](CCCCN)C(=O)N[C@@H](Cc1ccc(O)cc1)C(=O)N[C@@H](CC(C)C)C(=O)N[C@@H](C)C(=O)N[C@@H](C)C(=O)N[C@H](C(=O)N[C@@H](CC(C)C)C(N)=O)C(C)C)C(C)C)[C@@H](C)O` [PACAP1-27, PACAP-27, reference compound]: in data set [2], the “degradation in mouse serum” value was “degraded over 30 min”.

Consider `CC[C@H](C)[C@H](NC(=O)CNC(=O)[C@H](CC(=O)O)NC(=O)[C@H](CO)NC(=O)[C@@H](N)Cc1c[nH]cn1)C(=O)N[C@@H](Cc1ccccc1)C(=O)N[C@H](C(=O)N[C@@H](CC(=O)O)C(=O)N[C@@H](CO)C(=O)N[C@@H](Cc1ccc(O)cc1)C(=O)N[C@@H](CO)C(=O)N[C@@H](CCCNC(=N)N)C(=O)N[C@@H](Cc1ccc(O)cc1)C(=O)N[C@@H](CCCNC(=N)N)C(=O)N[C@@H](CCCCN)C(=O)N[C@@H](CCC(N)=O)C(=O)N[C@@H](CCSC)C(=O)N[C@@H](C)C(=O)N[C@H](C(=O)N[C@@H](CCCCN)C(=O)N[C@@H](CCCCN)C(=O)N[C@@H](Cc1ccc(O)cc1)C(=O)N[C@@H](CC(C)C)C(=O)N[C@@H](C)C(=O)N[C@@H](C)C(=O)N[C@H](C(=O)N[C@@H](CC(C)C)C(=O)N[C@@H](CO[C@@H]1O[C@H](CO)[C@@H](O)[C@H](O)[C@H]1O)C(N)=O)C(C)C)C(C)C)[C@@H](C)O` [PACAP1-27-S-G], for which the “mouse serum t1/2 in vitro” value in data set [2] (compared to native / non-glycosylated peptide) was “significant increase”. Also, the “degradation in mouse serum” value in data set [2] was “degraded over 30 min”.
